In one assay the target is Vasopressin V1a receptor (Homo sapiens, UniProt P37288). Description: Displacement of [3H]AVP from human recombinant V1a receptor expressed in H recombinant CHO cells. The class given is cell-based.
Assay [1] has as its target Beta-2 adrenergic receptor (Homo sapiens, UniProt P07550). The experiment in a line: Displacement of [3H](-)CGP 12177 from human recombinant beta2 receptor expressed in CHO cells. It counts as cell-based.
The target of another assay is Thromboxane A2 receptor (Homo sapiens, UniProt P21731). Description: Displacement of [3H]SQ 29548 from human recombinant TXA2 receptor expressed in HEK293 cells. The class given is cell-based.
Thromboxane A2 receptor, sequence (P21731 whole entry): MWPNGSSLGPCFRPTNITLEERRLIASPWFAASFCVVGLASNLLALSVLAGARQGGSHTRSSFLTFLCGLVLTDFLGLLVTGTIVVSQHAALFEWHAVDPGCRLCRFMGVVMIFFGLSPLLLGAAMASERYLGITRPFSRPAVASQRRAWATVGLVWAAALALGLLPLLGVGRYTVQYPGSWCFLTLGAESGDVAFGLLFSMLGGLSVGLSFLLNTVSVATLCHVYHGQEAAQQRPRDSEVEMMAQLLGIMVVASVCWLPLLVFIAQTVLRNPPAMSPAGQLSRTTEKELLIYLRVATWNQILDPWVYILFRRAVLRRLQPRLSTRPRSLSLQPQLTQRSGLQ
A further assay addresses Melanocortin receptor 4 (Homo sapiens, UniProt P32245). Description: Displacement of [125I]NDP-a-MSH from human recombinant MC4 receptor expressed in CHO cells. It counts as cell-based.
For assay [2], the target named is Small conductance calcium-activated potassium channel protein 1 (Rattus norvegicus, UniProt P70606). The experiment in a line: Displacement of [125I]apamin from SK+Ca channel in rat cerebral cortex. The class given is tissue-based.
Small conductance calcium-activated potassium channel protein 1, sequence (P70606 whole entry): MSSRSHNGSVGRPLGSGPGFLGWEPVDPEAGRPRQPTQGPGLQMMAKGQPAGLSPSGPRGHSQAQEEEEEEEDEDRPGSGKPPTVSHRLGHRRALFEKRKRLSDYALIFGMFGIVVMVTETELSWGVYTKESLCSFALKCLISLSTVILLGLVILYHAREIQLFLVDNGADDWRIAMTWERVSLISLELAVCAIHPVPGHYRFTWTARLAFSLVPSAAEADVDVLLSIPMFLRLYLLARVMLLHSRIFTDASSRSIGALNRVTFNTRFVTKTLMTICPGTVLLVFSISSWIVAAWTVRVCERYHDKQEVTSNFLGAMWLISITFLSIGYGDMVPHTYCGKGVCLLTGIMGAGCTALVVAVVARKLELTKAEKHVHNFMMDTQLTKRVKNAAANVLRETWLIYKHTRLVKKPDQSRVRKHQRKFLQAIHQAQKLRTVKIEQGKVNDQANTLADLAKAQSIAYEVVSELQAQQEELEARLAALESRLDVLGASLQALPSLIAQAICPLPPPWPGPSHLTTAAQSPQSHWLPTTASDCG
A further assay deals with Adenosine receptor A3 (Homo sapiens, UniProt P0DMS8). Description: Displacement of [3H]AB-MECA from human recombinant A3 receptor expressed in HEK293 cells. The class given is cell-based.
Adenosine receptor A3, sequence (P0DMS8 whole entry): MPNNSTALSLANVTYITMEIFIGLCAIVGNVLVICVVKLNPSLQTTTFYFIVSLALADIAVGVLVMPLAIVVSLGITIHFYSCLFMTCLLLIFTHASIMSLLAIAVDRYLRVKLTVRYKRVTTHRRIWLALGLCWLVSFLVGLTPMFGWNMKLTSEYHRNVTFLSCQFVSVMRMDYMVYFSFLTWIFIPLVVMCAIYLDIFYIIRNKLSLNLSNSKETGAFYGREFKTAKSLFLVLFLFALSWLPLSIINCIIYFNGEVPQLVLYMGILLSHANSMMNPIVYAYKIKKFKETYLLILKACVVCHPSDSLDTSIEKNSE
Assay [3] can be described thus: Inhibition of mouse brain AMT.
Assay [4] concerns the target 5-hydroxytryptamine receptor 1A (Homo sapiens, UniProt P08908). The experiment in a line: Displacement of [3H]8-OH-DPAT from human recombinant 5HT1A receptor expressed in HEK293 cells. The class given is cell-based.
The target in another assay is Cannabinoid receptor 2 (Mus musculus, UniProt P47936). Description: Inhibition of mouse brain CB2 receptor.
A short description of assay [5]: Displacement of [125I]Tyr11-somatostatin-14 from human recombinant sst receptor expressed in AtT-20 cells. It counts as cell-based. Particulars: att20.
The target of assay [6] is Transient receptor potential cation channel subfamily V member 1 (Mus musculus, UniProt Q704Y3). Description: Inhibition of mouse TRPV1 receptor.
Transient receptor potential cation channel subfamily V member 1, sequence (Q704Y3 whole entry): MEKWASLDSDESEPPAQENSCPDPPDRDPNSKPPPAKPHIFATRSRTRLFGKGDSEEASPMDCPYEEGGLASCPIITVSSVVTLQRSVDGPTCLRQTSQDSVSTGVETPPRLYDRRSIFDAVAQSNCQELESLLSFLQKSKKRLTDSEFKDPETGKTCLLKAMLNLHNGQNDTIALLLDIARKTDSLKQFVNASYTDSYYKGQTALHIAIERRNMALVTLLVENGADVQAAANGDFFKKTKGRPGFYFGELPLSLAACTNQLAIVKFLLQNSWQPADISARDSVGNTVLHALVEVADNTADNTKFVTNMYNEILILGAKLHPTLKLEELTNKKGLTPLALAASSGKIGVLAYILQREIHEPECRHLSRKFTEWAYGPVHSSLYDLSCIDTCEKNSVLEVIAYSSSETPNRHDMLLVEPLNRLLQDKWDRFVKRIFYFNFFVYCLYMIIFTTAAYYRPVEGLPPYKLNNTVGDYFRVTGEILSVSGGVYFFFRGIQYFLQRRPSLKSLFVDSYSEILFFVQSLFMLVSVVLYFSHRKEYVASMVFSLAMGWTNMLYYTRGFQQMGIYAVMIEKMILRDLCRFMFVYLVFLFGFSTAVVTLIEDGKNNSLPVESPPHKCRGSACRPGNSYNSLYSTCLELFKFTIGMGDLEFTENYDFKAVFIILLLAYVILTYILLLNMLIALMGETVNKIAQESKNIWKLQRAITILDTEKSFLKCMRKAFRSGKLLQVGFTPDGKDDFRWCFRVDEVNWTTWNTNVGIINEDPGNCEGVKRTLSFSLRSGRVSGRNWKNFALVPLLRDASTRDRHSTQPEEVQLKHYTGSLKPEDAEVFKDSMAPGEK
The target of assay [7] is C-C chemokine receptor type 1 (Homo sapiens, UniProt P32246). The experiment in a line: Displacement of [125I]MIP-1a from human recombinant CCR1 receptor expressed in HEK293 cells. It counts as cell-based.
Assay [8] concerns the target T1, Fatty-acid amide hydrolase 1 (Mus musculus, UniProt O08914).
T1 sequence (O08914 whole entry): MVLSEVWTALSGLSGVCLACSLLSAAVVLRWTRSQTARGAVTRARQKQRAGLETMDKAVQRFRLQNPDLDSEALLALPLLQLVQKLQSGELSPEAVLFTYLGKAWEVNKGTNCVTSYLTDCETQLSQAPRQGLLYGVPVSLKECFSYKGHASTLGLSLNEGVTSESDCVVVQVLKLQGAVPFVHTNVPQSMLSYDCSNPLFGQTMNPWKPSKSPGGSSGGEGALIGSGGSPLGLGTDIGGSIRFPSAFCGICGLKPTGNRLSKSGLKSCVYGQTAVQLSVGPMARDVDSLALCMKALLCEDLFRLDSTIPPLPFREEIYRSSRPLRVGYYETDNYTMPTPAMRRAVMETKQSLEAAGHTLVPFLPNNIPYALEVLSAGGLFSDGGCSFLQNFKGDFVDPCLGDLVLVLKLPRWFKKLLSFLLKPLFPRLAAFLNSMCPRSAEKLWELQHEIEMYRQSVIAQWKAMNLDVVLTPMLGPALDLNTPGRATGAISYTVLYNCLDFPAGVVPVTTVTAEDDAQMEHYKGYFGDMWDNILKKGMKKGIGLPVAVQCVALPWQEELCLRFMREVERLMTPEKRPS
The experiment in a line: Inhibition of mouse brain FAAH assessed as conversion of [3H-ethanolamine]AEA to [3H]ethanolamine by scintillation counting.

The target of a further assay is Histamine H2 receptor (Homo sapiens, UniProt P25021). The experiment in a line: Displacement of [125I]APT from human recombinant histamine H2 receptor expressed in CHO cells. The class given is cell-based.
Histamine H2 receptor, sequence (P25021 whole entry): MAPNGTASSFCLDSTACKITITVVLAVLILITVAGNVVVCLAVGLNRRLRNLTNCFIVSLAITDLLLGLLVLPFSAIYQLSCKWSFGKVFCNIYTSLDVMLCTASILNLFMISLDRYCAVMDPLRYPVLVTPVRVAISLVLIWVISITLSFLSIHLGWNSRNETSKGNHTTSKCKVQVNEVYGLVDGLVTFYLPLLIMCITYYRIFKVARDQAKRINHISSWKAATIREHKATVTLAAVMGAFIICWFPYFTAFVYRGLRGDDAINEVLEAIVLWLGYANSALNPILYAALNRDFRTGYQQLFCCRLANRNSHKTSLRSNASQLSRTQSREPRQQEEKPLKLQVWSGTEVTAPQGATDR
For the next assay, the target named is D(2) dopamine receptor (Homo sapiens, UniProt P14416). Description: Displacement of [3H]spiperone from human recombinant dopamine D2S receptor expressed in HEK293 cells. The class given is cell-based.
D(2) dopamine receptor, sequence (P14416 whole entry): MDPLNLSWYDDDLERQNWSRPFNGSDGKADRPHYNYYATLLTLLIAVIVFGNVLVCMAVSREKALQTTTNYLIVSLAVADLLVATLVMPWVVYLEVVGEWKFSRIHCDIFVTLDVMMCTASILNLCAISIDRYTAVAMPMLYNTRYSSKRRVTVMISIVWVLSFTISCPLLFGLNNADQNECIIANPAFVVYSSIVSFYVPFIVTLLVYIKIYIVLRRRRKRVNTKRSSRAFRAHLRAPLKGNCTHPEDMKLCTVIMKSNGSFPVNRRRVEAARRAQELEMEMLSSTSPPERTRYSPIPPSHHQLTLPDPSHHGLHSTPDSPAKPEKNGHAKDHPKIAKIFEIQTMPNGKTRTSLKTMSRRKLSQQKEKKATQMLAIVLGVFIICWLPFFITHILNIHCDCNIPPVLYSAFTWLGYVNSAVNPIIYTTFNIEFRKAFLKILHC
A short description of assay [9]: Displacement of [3H]GABA from GABA receptor in rat cerebral cortex. It counts as tissue-based.
The target in assay [10] is C-X-C chemokine receptor type 2 (Homo sapiens, UniProt P25025). The experiment in a line: Displacement of [125I]IL-8 from human recombinant CXCR2 receptor expressed in HEK293 cells. The class given is cell-based.
C-X-C chemokine receptor type 2, sequence (P25025 whole entry): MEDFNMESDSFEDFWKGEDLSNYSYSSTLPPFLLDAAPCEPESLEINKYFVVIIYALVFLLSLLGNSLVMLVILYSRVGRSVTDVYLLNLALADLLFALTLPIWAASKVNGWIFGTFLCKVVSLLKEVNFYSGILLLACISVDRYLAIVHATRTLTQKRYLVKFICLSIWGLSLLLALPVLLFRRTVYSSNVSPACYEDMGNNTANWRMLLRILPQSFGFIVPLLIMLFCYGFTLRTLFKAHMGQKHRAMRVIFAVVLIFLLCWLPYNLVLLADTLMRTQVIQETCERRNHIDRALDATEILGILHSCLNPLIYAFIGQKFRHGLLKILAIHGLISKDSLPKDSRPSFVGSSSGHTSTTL
In assay [11] the target is Muscarinic acetylcholine receptor M1 (Homo sapiens, UniProt P11229). The experiment in a line: Displacement of [3H]pirenzepine from human recombinant muscarinic M1 receptor expressed in CHO cells. The class given is cell-based.
Muscarinic acetylcholine receptor M1, sequence (P11229 whole entry): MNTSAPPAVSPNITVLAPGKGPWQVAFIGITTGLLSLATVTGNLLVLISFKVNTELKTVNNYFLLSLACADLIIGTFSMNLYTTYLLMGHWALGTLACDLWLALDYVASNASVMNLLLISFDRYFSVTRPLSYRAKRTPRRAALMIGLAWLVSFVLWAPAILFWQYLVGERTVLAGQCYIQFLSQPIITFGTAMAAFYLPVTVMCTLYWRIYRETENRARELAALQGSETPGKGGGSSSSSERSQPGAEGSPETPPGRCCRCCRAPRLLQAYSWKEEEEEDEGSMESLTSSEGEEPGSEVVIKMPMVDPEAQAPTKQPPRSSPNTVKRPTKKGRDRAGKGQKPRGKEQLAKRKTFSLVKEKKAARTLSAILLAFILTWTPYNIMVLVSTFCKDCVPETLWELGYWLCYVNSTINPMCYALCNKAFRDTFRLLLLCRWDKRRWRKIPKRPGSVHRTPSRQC

Structures are written as SMILES.

Vasopressin V1a receptor, sequence (P37288 whole entry): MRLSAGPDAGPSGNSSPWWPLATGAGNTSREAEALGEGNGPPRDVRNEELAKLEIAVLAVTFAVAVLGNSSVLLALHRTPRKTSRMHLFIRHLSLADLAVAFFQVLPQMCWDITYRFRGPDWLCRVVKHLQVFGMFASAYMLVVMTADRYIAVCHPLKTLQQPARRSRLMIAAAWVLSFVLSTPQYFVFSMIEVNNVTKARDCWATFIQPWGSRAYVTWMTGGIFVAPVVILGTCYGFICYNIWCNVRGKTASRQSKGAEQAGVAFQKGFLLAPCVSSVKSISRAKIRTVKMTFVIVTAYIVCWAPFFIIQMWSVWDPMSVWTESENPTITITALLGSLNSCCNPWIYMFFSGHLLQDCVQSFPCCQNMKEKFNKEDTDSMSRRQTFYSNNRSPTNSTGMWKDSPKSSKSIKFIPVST
Beta-2 adrenergic receptor, sequence (P07550 whole entry): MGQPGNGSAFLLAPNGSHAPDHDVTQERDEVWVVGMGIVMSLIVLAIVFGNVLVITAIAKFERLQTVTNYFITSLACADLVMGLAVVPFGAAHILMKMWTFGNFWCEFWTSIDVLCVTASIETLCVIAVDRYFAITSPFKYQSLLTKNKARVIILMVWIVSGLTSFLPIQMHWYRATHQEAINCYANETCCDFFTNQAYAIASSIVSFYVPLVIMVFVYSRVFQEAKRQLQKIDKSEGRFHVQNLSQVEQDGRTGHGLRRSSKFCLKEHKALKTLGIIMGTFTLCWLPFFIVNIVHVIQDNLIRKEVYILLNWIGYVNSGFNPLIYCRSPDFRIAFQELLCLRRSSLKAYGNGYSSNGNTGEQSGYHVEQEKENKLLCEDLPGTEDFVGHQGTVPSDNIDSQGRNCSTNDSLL
Melanocortin receptor 4, sequence (P32245 whole entry): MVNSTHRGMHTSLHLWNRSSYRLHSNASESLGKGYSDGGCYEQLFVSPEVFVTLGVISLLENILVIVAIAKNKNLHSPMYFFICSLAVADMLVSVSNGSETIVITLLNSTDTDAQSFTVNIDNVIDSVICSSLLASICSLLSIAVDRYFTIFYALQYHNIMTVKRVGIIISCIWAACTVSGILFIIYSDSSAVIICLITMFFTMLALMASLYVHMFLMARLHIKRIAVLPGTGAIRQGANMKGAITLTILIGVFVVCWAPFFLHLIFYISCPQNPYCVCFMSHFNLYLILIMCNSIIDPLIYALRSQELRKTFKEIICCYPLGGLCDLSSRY

For the compound `C/C(=N\OC(=O)Nc1ccccc1)c1cccc(-c2cccs2)c1`, the IC50 at Vasopressin V1a receptor was more than 10 µM; in [1], more than 10 µM; on Thromboxane A2 receptor it was more than 10 µM; at Melanocortin receptor 4 it was more than 10 µM; in assay [2], more than 10 µM; at Adenosine receptor A3, 1 µM. Moreover, the IC50 in assay [3] is 0.1 µM; in [4], 1 µM; at Cannabinoid receptor 2, 10 µM; in [5], more than 10 µM; in assay [6], more than 10 µM; in [7], more than 10 µM. Also, the IC50 in [8] was 0.008 µM; at Histamine H2 receptor it was more than 10 µM; on D(2) dopamine receptor, more than 10 µM; in [9], more than 10 µM; in assay [10], more than 10 µM; in assay [11] it was more than 10 µM.

The values are drawn from ChEMBL document CHEMBL1208724, “A new group of oxime carbamates as reversible inhibitors of fatty acid amide hydrolase” (Bioorg Med Chem Lett, 2010).
